# Results as given in patent US6200963A, “Aryl sulfonic acids as FSH antagonists” (American Home Products Corporation, priority 2000, dated 2001).
# Structures can show the parent of a compound that is named as a salt. Where two headings read alike, the source gives them in different places.
# Experiments:
# FSH receptor [1] = target: T1, FSH receptor (Homo sapiens, UniProt P23945); experiment: FSH Receptor Radioligand Membrane Binding Assay ([125I]hFSH, CHO cell membranes); design: expressed in transfected cells; membrane homogenate; details: for inhibition at 10 µM: read-out: % Inhibition at 10 μM conc.; for inhibition at 100 µM: read-out: % Inhibition at 100 μM conc.
# T1 sequence (P23945 18-695): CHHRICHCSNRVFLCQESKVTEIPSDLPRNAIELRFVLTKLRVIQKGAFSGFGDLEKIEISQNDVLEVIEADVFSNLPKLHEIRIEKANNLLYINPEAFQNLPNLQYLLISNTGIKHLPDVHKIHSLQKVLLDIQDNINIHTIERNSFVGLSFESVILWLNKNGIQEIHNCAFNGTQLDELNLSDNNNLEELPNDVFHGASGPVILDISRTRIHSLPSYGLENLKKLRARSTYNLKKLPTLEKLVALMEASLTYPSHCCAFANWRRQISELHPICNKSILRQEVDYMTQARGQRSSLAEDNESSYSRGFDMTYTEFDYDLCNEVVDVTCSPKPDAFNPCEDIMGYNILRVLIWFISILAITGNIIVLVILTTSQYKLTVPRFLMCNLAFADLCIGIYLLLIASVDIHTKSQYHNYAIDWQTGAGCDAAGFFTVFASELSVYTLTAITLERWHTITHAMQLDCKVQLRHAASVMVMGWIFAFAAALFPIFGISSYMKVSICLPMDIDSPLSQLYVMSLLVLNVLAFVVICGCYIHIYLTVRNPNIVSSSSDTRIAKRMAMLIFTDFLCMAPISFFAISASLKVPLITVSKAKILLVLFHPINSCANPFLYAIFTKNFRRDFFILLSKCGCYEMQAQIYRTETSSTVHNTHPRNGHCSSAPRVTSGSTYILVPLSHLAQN
# Experimental: FSH Receptor Radioligand Membrane Binding Assay
# Membrane Source: Chinese hamster ovarian cells stably transfected with the human FSH receptor were cultured (Ultra CHO medium containing 1% fetal bovine serum and 200 μg/mL G418) in and harvested. Cells were collected by centrifugation and resulting cell pellets were frozen and stored at -70° C.
# Membrane Receptor Preparation: Frozen cell pellets were weighed and resuspended in binding buffer to a final concentration of 30 mg wet weight/mL. Cell suspension for each pellet was homogenized using a Tempest homogenizer (setting=1; 5 strokes; VirTis, Gardiner, N.Y.). Cell homogenates were pooled and 35 mL aliquots were transferred to 50-mL polypropylene copolymer centrifuge tubes (Nalgene cat. #3110-0500). Tubes were spun at 12,000 rpm (SS34 rotor) for 12 min at 4° C. Resulting supernatant fractions were discarded and pellets were stored at -70° C. until use. On the day of the assay, 35 mL binding buffer was added to each tube (35 mL membrane suspension was sufficient for three 96-well plates). The membrane pellet was dispersed by trituration using a pipet. The resulting suspension was homogenized using a Tempest homogenizer (3 strokes at setting=1).
# Receptor Binding Assay: Membrane homogenate (100 μl) was added to each well of a 96-well microtiter plate (Falcon # 3077). All reactions were tested in triplicate. Test compound solutions (50 μl) were added to the designated wells. Total bound counts were determined by adding 50 μl binding buffer containing 4% DMSO to the designated wells. […] Plates were pre-incubated for 15 min at room temperature on shaking platform (setting=3). After preincubation [^125 I]FSH (50 μl) was added to each well and plates were incubated for 2 h at room temperature on shaking platform (setting=3). The reaction was terminated by transfer of the membrane preparation to glass fiber filters (Blue Mat #11740; 102×256 mm; Skatron Instruments, Sterling, Va.) that had been pretreated with 1% BSA in wash buffer for at least 30 min, but not longer than 1 h using a 96-well microtiter vacuum harvester (Skatron Instruments). The membrane preparation was washed with 5 cycles of ice-cold wash buffer (200 μl/well/cycle) followed by a pulse wash of 3 cycles (100 μl/well/cycle). The total wash volume per well was 1.3 mL. The filters were dried by a 10 sec aspiration. Disks corresponding to each well of the microtiter plate were punched out of the filter mat into 12×75 mm polypropylene tubes. The radioactivity present on each of the disks was measured using a gamma counter.
# An FSH dose response curve (0.001, 0.01, 0.1, 1, 10, and 100 nM) was generated for each binding assay to monitor assay to assay variability.
# FSH Receptor Radioligand Membrane Binding Assay Buffers and Reagents
# Binding Buffer (pH 7.2): 10 mM Trizma®-HCl (Sigma)
# Binding buffer was prepared in 1 l volumes containing Trizma-HCl, MgCl2, CaCl2 and sodium azide, the pH was adjusted to 7.2 with NaOH, and stored at 4° C. until use. BSA was weighed out on the day of the assay and added to the amount of buffer required for the assay (usually 150 mL). The protease inhibitors were prepared as 1 mg/mL stocks (aprotinin, leupeptin, and phosphoramidon were prepared in binding buffer without BSA and protease inhibitors; pepstatin and PMSF were prepared in methanol), stored in 1 mL aliquots at -70° C., and added to the binding buffer on the day of the assay.
# Wash Buffer (pH 7.2): 50 mM Trizma®-HCl (Sigma)
# Wash buffer was prepared containing Trizma-HCl, MgCl2 and EDTA, the pH was adjusted to 7.2 with NaOH, and stored at 4° C.
# Filter Soak Buffer (pH 7.2): Wash Buffer
# BSA was weighed out on the day of the assay and added to 300 mL of wash buffer. The filter soak buffer was used for two assays before being discarded.
# A portion of the stock solution was diluted in binding buffer to a concentration of 200 pM. […]
# FSH receptor [2] = target: T1, FSH receptor; experiment: In Vitro Bio-assay of Agonists and Antagonists to the FSH Receptor (cAMP accumulation in CHO-3D2 cells); format: cell-based; design: expressed in transfected cells; host or cells: CHO-3D2 cells
# Experimental: Preparation of CHO-3D2 Cells; CHO-3D2 cells were plated into 96-well Nunc tissue culture plates at a density of 30,000 cells/well in DMEM/F12 medium (Gibco/BRL, Grand Island, N.Y.) supplemented with 5% Fetal Bovine Serum (Hyclone, Fetal Clone II), 2 mM L-glutamine and penicillin/streptomycin (100 U/mL).
# The plate was split in half to test a single compound in both agonist and antagonist mode on the same plate.
# For agonist mode, compounds were tested using 5 different concentrations in a dose-response paradigm using one column as a control (challenge medium alone) in agonist mode.
# The 96-well format allowed for the capability to test 4 columns of compound, using one of the remaining columns for negative control (challenge medium alone) and the other remaining column for ampositive control (ED20 of FSH alone).
# The doses chosen to test each compound were extrapolated from the initial screening process (receptor binding data).
# Data were analyzed statistically by analysis of variance and significant differences between treatments and control determined by Dunnett's test. In antagonist mode, a Duncan's test was used.
# Reference Compounds: Test compounds were compared to the effect of purified or recombinant human FSH.
# FSH receptor [3] = target: T2, FSH receptor (Rattus norvegicus, UniProt P20395); experiment: In Vitro Bioassay of Agonists and Antagonists to the FSH Receptor using Primary Cultures of Rat Granulosa (estradiol secretion); format: cell-based; design: immature female Sprague-Dawley rats (Charles River Laboratories, Wilmington, Mass.) were used as donors for ovarian granulosa cells; endogenous in cells; host or cells: primary ovarian granulosa cells of immature female Sprague-Dawley rats; details: antagonist mode; ED50 of FSH (0.5 ng/mL), rat granulosa cells, 72 h; read-out: IC50 (half-maximal inhibition of FSH-induced estradiol secretion)
# T2 sequence (P20395 18-692): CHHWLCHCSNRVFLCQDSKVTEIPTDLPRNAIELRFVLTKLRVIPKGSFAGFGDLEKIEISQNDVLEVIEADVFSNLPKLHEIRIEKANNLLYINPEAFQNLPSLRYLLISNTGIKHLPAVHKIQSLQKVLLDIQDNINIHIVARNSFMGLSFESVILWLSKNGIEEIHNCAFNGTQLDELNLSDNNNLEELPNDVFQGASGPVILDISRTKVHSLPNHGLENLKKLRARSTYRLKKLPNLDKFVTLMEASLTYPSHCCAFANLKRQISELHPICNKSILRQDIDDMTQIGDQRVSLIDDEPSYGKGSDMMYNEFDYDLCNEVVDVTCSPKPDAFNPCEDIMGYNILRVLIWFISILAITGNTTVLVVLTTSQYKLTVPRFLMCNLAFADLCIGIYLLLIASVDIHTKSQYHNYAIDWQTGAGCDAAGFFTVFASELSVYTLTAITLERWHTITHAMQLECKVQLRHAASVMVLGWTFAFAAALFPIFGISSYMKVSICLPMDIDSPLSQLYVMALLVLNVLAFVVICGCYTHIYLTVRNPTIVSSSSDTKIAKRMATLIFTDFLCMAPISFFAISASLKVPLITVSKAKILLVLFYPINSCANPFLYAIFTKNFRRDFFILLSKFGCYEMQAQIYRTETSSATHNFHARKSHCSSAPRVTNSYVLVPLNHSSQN
# testosterone production [4] = details: rats administered suramin; in words; cited from earlier work
# FSH receptor [5] = target: T2, FSH receptor; details: literature, in words; cited from earlier work
# testosterone production [6] = details: humans administered suramin; in words; cited from earlier work
# [7] = 10 μM, [125I]hFSH binding, CHO membranes with human FSH receptor
# [8] = 100 μM, [125I]hFSH binding, CHO membranes with human FSH receptor
# [9] = antagonist mode, hFSH-induced cAMP accumulation (ED20 of FSH, […]), CHO-3D2 cells, 30 min
IC50 (FSH receptor [1]) [µM],inhibition at 10 µM (FSH receptor [1]; [7]) [%],inhibition at 100 µM (FSH receptor [1]; [8]) [%],Compound,further results
79,11,76,"COc1ccc(N=Nc2c(S(=O)(=O)O)cc3cc(NC(=O)c4ccccc4)ccc3c2O)cc1 [Example 16, 7-Benzoylamino-4-hydroxy-3-(4-methoxy-phenylazo)-napthalene-2-sulfonic Acid]",
81,14,60,"COc1ccc(N=Nc2c(S(=O)(=O)O)cc3cc(NC(=O)c4cc(OC)cc(OC)c4)ccc3c2O)cc1 [Example 14, 7-(3,5-Dimethoxy-benzoylamino)-4-hydroxy-3-(4-methoxy-phenylazo)-napthalene-2-sulfonic Acid]",
,10,8,"COc1ccc(N=Nc2c(S(=O)(=O)O)cc3cc(NC(=O)c4c(OC)cccc4OC)ccc3c2O)cc1 [Example 18, 7-(2,6-Dimethoxy-benzoylamino)-4-hydroxy-3-(4-methoxy-phenylazo)-napthalene-2-sulfonic Acid]",
,29,71,"COc1ccc(N=Nc2c(S(=O)(=O)O)cc3cc(Nc4nc(Cl)nc(N(CCO)CCO)n4)ccc3c2O)cc1 [Example 11, 7-{4-[Bis-(2-hydroxy-ethyl)-amino]-6-chloro-[1,3,5]-triazin-2-ylamino)-4-hydroxy-3-(4-methoxy-phenylazo)-napthalene-2-sulfonic Acid, Sodium Salt]","IC50 (FSH receptor [2]; [9]): 10 µM; IC50 (FSH receptor [1]; [125I]hFSH binding, CHO membranes with human FSH receptor): 8.6 µM"
,74,94,"COc1ccc(N=Nc2c(S(=O)(=O)O)cc3cc(Nc4nc(Cl)nc(N(CCC(N)=O)CCC(N)=O)n4)ccc3c2O)cc1 [Example 9, 7-{4-[Bis-(2-carbamoyl-ethyl)-amino]-6-chloro-[1,3,5]-triazin-2-ylamino)-4-hydroxy-3-(4-methoxy-phenylazo)-napthalene-2-sulfonic Acid, Sodium Salt]","IC50 (FSH receptor [2]; [9]): 1.4 µM; % Inhibition at 10 μM conc. (FSH receptor [1]; 10 μM, [125I]hFSH binding, CHO membranes with human FSH receptor, Sodium Salt): 66%; % Inhibition at 100 μM conc. (FSH receptor [1]; 100 μM, [125I]hFSH binding, CHO membranes with human FSH receptor, Sodium Salt): 98%; IC50 (FSH receptor [1]; [125I]hFSH binding, CHO membranes with human FSH receptor, Sodium Salt): 5 µM; IC50 (FSH receptor [1]; [125I]hFSH binding, CHO membranes with human FSH receptor, listed as 3, Sodium Salt): 6 µM; IC50 (FSH receptor [3]): 1900 nM"
,,,Cc1ccc(C(=O)Nc2ccc(S(=O)(=O)O)c3cc(S(=O)(=O)O)cc(S(=O)(=O)O)c23)cc1NC(=O)c1cccc(NC(=O)Nc2cccc(C(=O)Nc3cc(C(=O)Nc4ccc(S(=O)(=O)O)c5cc(S(=O)(=O)O)cc(S(=O)(=O)O)c45)ccc3C)c2)c1 [suramin],testosterone production (testosterone production [4]): decrease in testosterone production; inhibition of FSH binding to its receptor (FSH receptor [5]): inhibit FSH binding to its receptor; testosterone production (testosterone production [6]): decrease in testosterone production
14,19,100,"COc1ccc(N=Nc2c(S(=O)(=O)O)cc3cc(NC(=O)c4ccc(OC)c(OC)c4)ccc3c2O)cc1 [Example 19, 7-(3,4-Dimethoxy-benzoylamino)-4-hydroxy-3-(4-methoxy-phenylazo)-napthalene-2-sulfonic Acid]",IC50 (FSH receptor [2]): 16 µM
101,,,"COc1ccc(N=Nc2c(S(=O)(=O)O)cc3cc(NC(=O)c4ccc(N(C)C)cc4)ccc3c2O)cc1 [Example 12, 7-(4-Dimethylamino-benzoylamino)-4-hydroxy-3-(4-methoxy-phenylazo)-napthalene-2-sulfonic Acid, Sodium Salt]",
